Source: a melting point compilation (Tetko et al.; mined from patent text by program, amines drawn as free bases though some values may be those of a salt)

Row | Compound | melting point [°C]
1 | CCn1c(Oc2ccc(F)cc2)nnc1[C@@H](C)N(C)S(=O)(=O)c1ccc(Cl)c(Cl)c1 | 126
2 | Cc1cc2c(cc1Cl)NC(=O)C2c1ccccc1Cl (configuration not stated) | 186
3 | CC(=O)Nc1cccc(-c2cnc3c(c2)nc(-c2cccnc2N)n3-c2ccc(CNC(=O)c3ccccc3)cc2)c1 | 76 to 81
4 | COc1cc(C#Cc2cc(OC)c(OC(C)C)cc2OC(=O)CI)ccc1OC(C)C | 127 to 128
5 | CCOC(=O)COc1c(F)cc(S(=O)CCNS(=O)(=O)c2ccc(Cl)cc2)cc1F (configuration not stated) | 137 to 138
6 | O=C(O)c1ccccc1SC1CCOC1=O (configuration not stated) | 180 to 182
7 | COC(=O)c1ccccc1-c1cnc(-c2cccc(C(F)(F)F)c2)o1 | 84.5 to 86
8 | C[C@H](NC(=O)Nc1cccc(CC(=O)O)c1)C(=O)N1[C@@H](c2ccccc2F)SC[C@H]1C(=O)OC(C)(C)C | 110
9 | CCC1(CC)C(=O)c2cc(OCC(=O)O)c(C)c(C)c2C1=O | 134 to 136
10 | C[Si](C)(C)CCCCNC(=O)n1cc(F)c(=O)[nH]c1=O | 129 to 132
11 | COc1cc(OC)cc(N2Cc3cnc(S(C)=O)nc3NC2=O)c1 (configuration not stated) | 220 to 222
12 | CCCCOCCOc1ccc(-c2ccc3c(c2)C=C(C(=O)Nc2ccc(S(=O)Cc4cncn4CCC)cc2)CCCN3CC(C)C)cc1 (single isomer, unassigned; (-)) | 120 to 122
13 | C=CCSC(=S)c1cc(C(C)(C)C)c(O)c(C(C)(C)C)c1 | 93 to 95
14 | CCCCCCCCCCCCCCn1c(=O)[nH]c2nc3ccccc3n2c1=O | 193
15 | CC(=NO)C(C)(C)NCCN(C)NC(C)(C)C(Cn1ccnc1[N+](=O)[O-])=NO | 156 to 158
16 | CN(C)c1ccc(C(C)(C(=O)O)c2ccc(N(C)C)cc2)cc1 | 152 to 154
17 | COc1ccc(Nc2nc(N)nc3c(OC)cccc23)c(C)c1 | 185 to 187
18 | Cc1csc2[nH]c(=O)n(CCC(C(=O)NO)N(C)S(=O)(=O)c3ccc(Oc4ccccc4)cc3)c(=O)c12 (configuration not stated) | 142 to 144
19 | CCOc1ccc(F)cc1C(C)(C)CC(O)(Cn1ccc(=O)c2ccccc21)C(F)(F)F (configuration not stated) | 195 to 196
20 | COCc1c(C(=O)O)ncc2c1c1c(Oc3ccc([N+](=O)[O-])cc3)cccc1n2CC(=O)N(C)CCc1ccccc1 | 231 to 232
21 | COc1ccc(C(=O)Nc2ccccc2)cc1NCc1ccc(C(C)C)cc1 | 174 to 176
22 | COc1cc2c(cc1C)CCN=C2CCc1ccc(Cl)cc1 | 122 to 124
23 | Cc1c(C)c2c(c(C)c1NC(=O)NCCN(C)C)C(c1ccc(C(C)C)cc1)CO2 (configuration not stated) | 133 to 134
24 | Cc1cc(C(N)=O)c2c(c1)C(C(Cl)(Cl)Cl)OC(C(Cl)(Cl)Cl)O2 (configuration not stated) | 281 to 283
25 | CC(NSC(=O)OC(C)(C)C)C(=O)n1c(=O)[nH]c2ccccc21 (configuration not stated) | 101

Row | Compound | melting point [°C]
26 | CCOC(=O)C1=C(C)NC(c2ccc(C)cc2)=C(C(=O)OCC)C1c1cccc([N+](=O)[O-])c1 (configuration not stated) | 149 to 150
27 | CCOC(=O)C1=C(COCCNC(=O)c2cccnc2)NC(C)=C(C(=O)OC)C1c1ccccc1Cl (configuration not stated) | 81 to 84
28 | O=[N+]([O-])c1ccccc1Cc1n[nH]c(S)n1 | 239 to 241
29 | Cc1cc(C)c(C(=O)P(=O)(CC(C)C)C(=O)c2c(C)cc(C)cc2C)c(C)c1 | 85 to 86
30 | Nc1nc2c(ncn2/C=C2/CC2(CO)CO)c(=O)[nH]1 | > 300
31 | CS(=O)(=O)N1CCC(C(=O)N(CCCN2CCC(Cc3ccccc3)CC2)c2ccccc2)CC1 | 116 to 118
32 | C#CCOC(=O)c1cc(Cl)c(OCC#C)c(OCC#C)c1 | 98 to 99
33 | CNC(=O)C(C)(C)C(O)(Cn1cncn1)c1ccc(Cl)cc1Cl (configuration not stated) | 145 to 146
34 | CCN1C(=O)c2cscc2Nc2ccccc21 | 175 to 177
35 | CN(C)c1noc(-c2cc(C(C)(C)C)c(O)c(C(C)(C)C)c2)n1 | 135 to 138
36 | S=C1CN=C(c2ccccc2Cl)c2cc(CCc3ccc(Cl)cc3)sc2N1 | 201 to 203
37 | C#CCN1C(=O)C(C)Oc2cc(F)c(N)cc21 (configuration not stated) | 142 to 145
38 | CC(C)c1cc(OCCN2CCOCC2)cc2c1C(=O)N(COc1cc(=O)n3cccc(OCCCN4CCOCC4)c3n1)S2(=O)=O | 145 to 150
39 | COc1cc(OC)c2nc[nH]c(=O)c2c1 | 280 to 282
40 | COCn1c(-c2nc3c(OC)ccc(N4CCOCC4)c3s2)nc2ccc(C3CCNC3)nc21 (configuration not stated) | 120 to 130
41 | CC(=NOCCOc1ccc(CC2SC(=O)NC2=O)cc1)c1ccc(Cl)cc1 (configuration not stated) | 118 to 119
42 | COC(=O)c1cccc(-c2nc(-c3ccc(F)cc3F)cs2)c1 | 121 to 122
43 | CC(C)(C)C(NC(=O)c1ccc(Cl)cc1)Nc1c(Nc2cccnc2F)c(=O)c1=O (configuration not stated) | 231 to 234
44 | CC(C)(C)c1cc(SC2CCOC2=O)cc(C(C)(C)C)c1O (configuration not stated) | 98
45 | NC(=O)c1cc2n(n1)-c1ccc(Cl)cc1C(c1ccccc1)=NC2 | 216 to 218
46 | O=C1CN(N=Cc2ncc(-c3ccc([N+](=O)[O-])cc3)o2)C(=O)N1 | 314 to 316
47 | CC(C)C[C@H](NC(=O)[C@H](CC(=O)OC(C)(C)C)Cc1ccccc1)C(=O)N[C@@H](CC(C)C)[C@@H](O)c1nccs1 | 162 to 163
48 | COC(=O)[C@H](Cc1ccccc1)NC(=O)N(Cc1ccccc1)NC(=O)OC(C)(C)C | 71 to 73
49 | CNCCC(O)(c1ccc(Br)cc1)c1ccccn1 (configuration not stated) | 81 to 88
50 | O=Cc1c2ccccc2c(CO)c2ccccc12 | 182 to 184

Row | Compound | melting point [°C]
51 | O=S(=O)(c1ccc(N2CCNCC2)cc1)n1ccc2cc(F)ccc21 | 77 to 78
52 | CN1CCN(c2ccccc2C=CC(=O)Nc2ccc(Cl)c(Cl)c2)CC1 | 192 to 193
53 | Cc1cc(C)n(-c2nc(Nc3cccc(Cl)c3)c3ccccc3n2)n1 | 259 to 262
54 | CN1CCC(NC(=O)C2c3ccccc3NC(=O)c3ccccc32)CC1 (configuration not stated) | 230 to 231
55 | COC1=C(OC)C(=O)C2=C(CCC(CCOc3ccc(CO)cc3)CC2)C1=O | 57 to 59
56 | O=C(O)Cc1c[nH]c2cc(C3CC3)nn2c1=O | > 300
57 | N#CCCn1c(C(=O)OCc2ccccc2)cc2ccccc21 | 98 to 100
58 | CCc1nnc2n1N=C1c3cc(OC)c(OC)cc3CC1S2 (configuration not stated) | 212
59 | CN=C(NS(=O)(=O)N1CCOCC1)C1=NN(c2ccc(Cl)cc2Cl)C(c2ccccc2)C1 (configuration not stated) | 161 to 165
60 | COc1cccc(CC(=O)O)c1OCCCc1cn(-c2ccc(Cl)cn2)nc1C(C)(C)C | 87 to 88
61 | O=C(O)CC1CCCN(C(=O)c2ccc(NC(=O)COc3ccccc3)cc2)c2ccccc21 (configuration not stated) | 102 to 106
62 | COCCN(CCOC)c1ccc(NC(=O)c2ccc(C)c(Nc3nccc(-c4cccnc4)n3)c2)cc1C(F)(F)F | 156 to 157
63 | CCCN(CCC)C(=O)C(CCC(=O)NC)NC(=O)OCc1ccccc1 (configuration not stated) | 75 to 76
64 | CN(C)C(c1ccccc1)c1cc(C(C)(C)C)cc(C(C)(C)C)c1O (configuration not stated) | 120 to 123
65 | Cc1cc(Oc2ncc(Cl)cc2Cl)n[nH]1 | 109 to 111
66 | CNC(=O)CC1(C)OCCn2c1c(C)c1ccccc12 (configuration not stated) | 131 to 133
67 | COC(=O)CCC(=O)N(O)c1cccc(OCc2nc3ccccc3s2)c1 | 123 to 125
68 | Cc1cc(=O)c2ccc(OCC(O)CNC(C)C)cc2o1 (configuration not stated) | 80 to 82
69 | COc1cccc(NC(=O)C(C)(C)C)c1CCO | 118 to 120
70 | O=C(CCCl)Nc1ccc2c(c1)C(=O)c1cc(NC(=O)CCCl)ccc1C2=O | 281
71 | CCOC(=O)C=CC=Cc1cn(-c2cccnc2)c2ccccc12 | 112 to 113
72 | COc1cc(O)c(C=NNC(=O)c2cc3ccccc3s2)c(OC)c1 | 205
73 | COc1ccc(N2CCN(c3c(C)c(C)c4c(c3C)CC(C)(C)O4)CC2)cc1OC | 135 to 137
74 | CC(=O)c1ccc(OCC(O)CCCl)cc1 (configuration not stated) | 75 to 77
75 | O=c1oc2c3ccccc3ccc2c2occc12 | 198 to 200

Row | Compound | melting point [°C]
76 | COc1ccc(Cc2ccc3[nH]c4cnn(C)c4c(=O)c3c2)cc1 | 248 to 249
77 | COC(=O)C1=CC=Nc2ccccc2C1 | 168 to 173
78 | CN(CCc1ccccc1)C(=O)Cn1cc(C=C(C(=O)O)C(C)(C)C)c2cc([N+](=O)[O-])ccc21 | 140 to 143
79 | C[C@H](NC(=O)OCc1ccccc1)C(=O)N1CCC[C@H]1C(=O)NC1CCCCCCC1 | 94 to 96
80 | COc1ccc2c(-c3ccc(C#Cc4ccccc4)cc3)cc(=O)oc2c1 | 178 to 180
81 | Cc1cc(-c2cc(COS(C)(=O)=O)c(=O)n(CC=Cc3ccccc3)n2)ccc1F | 78.4 to 80.5
82 | CCOP(=O)(CC(=O)Nc1cc2c(Nc3ccc(OCc4ccccn4)c(Cl)c3)ncnc2cn1)OCC | 113 to 116
83 | O=C1C2CCCCC2(Cl)C(=O)N1c1ccc(Cl)cc1 (configuration not stated) | 116 to 118
84 | CC1(C)CC(=O)CC(=O)N1 | 183 to 184
85 | Clc1nc(NCc2cccc(I)c2)c2[nH]cnc2n1 | 222 to 224
86 | CCCC/C(=C\C=C\C(=O)O)c1ccc(OC)cc1 | 138 to 140
87 | COCCNS(=O)(=O)c1ccc(Nc2nc(OCC3CCCCC3)c3nc[nH]c3n2)cc1 | 120 to 122
88 | COC1=C(OCCCc2ccccc2)c2c(C)ccnc2C(N)([N+](=O)[O-])C1 (configuration not stated) | 91 to 91.5
89 | Cc1nc(N2CCN(Cc3ccc(F)cc3)C2=O)sc1-c1nn[nH]n1 | 145 to 149
90 | CCc1cc(N(C=O)c2ccccc2)cc(CC)c1N(C(N)=S)C(C)(C)C | 160 to 162
91 | CCN(C(=O)N1CCN(c2cc(C)cc(C)c2)CC1)c1nc(C)c(C)nc1OC | 68 to 70
92 | C=C(CCC)C(=O)c1cc2oc(C(=O)O)cc2c(C)c1C | 172
93 | CN1CCN(C(=O)c2ccc(-c3ccc4nnn(Cc5ccc6ncccc6c5)c4n3)cc2)CC1 | 156 to 158
94 | CCCCCN(CCc1c[nH]c2ccccc12)C(=O)CCCC(=O)OC | 70 to 71
95 | O=CN1CCC(c2noc3cc(Cl)ccc23)CC1 | 114 to 115
96 | Cc1cn(C[C@H]2CC[C@@H](CO)O2)c(=O)[nH]c1=O | 133 to 135
97 | CN1CCC(C(=O)N(C)C)C(c2cccc(F)c2)C1 (configuration not stated) | 101
